These results are taken from patent US9499561B2, “Fused pyrimidine compound, and preparation method, intermediate, composition, and uses thereof” (Shanghai Yingli Science and Technology Co., Ltd., priority 2012, dated 2016).

One data set has as its target PI3Kα (Homo sapiens (Human), UniProt P42336). Kind of data set: PI3Kα enzymatic inhibitory activity IC50 assay (Caliper Reader). The data set is classed as biochemical. How it is done:
(§1) Biological Effect Example 1 PI3Kα and PI3Kδ Enzymatic Inhibitory Activity IC50 Assay • 1. Buffer preparation: 50 mM HEPES, pH 7.5, 3 mM MgCl2, 1 mM EGTA, 100 mM NaCl, 0.03% CHAPS. • 2. Compound was formulated in 100% DMSO in a concentration gradient, deposited to a 384-well plate to make final DMSO concentration of 1%. • 3. PI3Kα and PI3Kδ enzymes were diluted to be the optimum concentration with the following buffer: 50 mM HEPES, pH 7.5, 3 mM MgCl2, 1 mM EGTA, 100 mM NaCl, 0.03% CHAPS, 2 mM DTT. Transferred to a 384-well plate and incubated with the compound for a certain time. • 4. […] The reaction was performed in a 384-well plate for 1 h at room temperature for PI3Kα and 2 hrs at room temperature for PI3Kδ. • 5. Read the conversion rate using Caliper Reader, and calculate the inhibition rate as the average of two tests.

In another data set the target is PI3Kδ (Homo sapiens (Human), UniProt O00329). Description: PI3Kδ enzymatic inhibitory activity IC50 assay (Caliper Reader). The data set is classed as biochemical. The protocol:
as §1

In a further data set the test system is A549. Description: Cell proliferation inhibition assay (MTT), A549. In kind it is cell-based. The settings on record: 72 hrs. How it is done:
(§2) Cancer cell lines (A549, PC3, or […]) in the logarithmic growth phase were plated at a density of about 3,000 per well in 96-well plates, 90 μL/well, using double wells for each concentration. Control wells containing corresponding concentration of vehicle and without cells were also prepared. After 24 hrs, positive control compound and example compounds were added to make 10 μL/well and final DMSO concentration of 0.5%. The cells were incubated with compounds for 72 hrs in the presence of 10% Invitrogen fetal bovine serum, 37° C., 5% CO2. 5 mg/mL MTT solution was added to make 10 μL/well, and incubated for 4 hours at 37° C. A ddH2O solution (10% SDS, 5% isobutanol, 10 mmol/L HCl) was added to make 100 μL/well and incubated overnight at 37° C.

A further data set concerns U87-MG. Kind of data set: Cell proliferation inhibition assay (MTT), U87-MG. The settings on record: 72 hrs. In kind it is cell-based. How it is done: as §2
For the next data set, the system named is PC3. Kind of data set: Cell proliferation inhibition assay (MTT), PC3. In kind it is cell-based. The settings on record: 72 hrs. The protocol:
as §2

Data set [1] has as its system malignant glioma cell U87MG xenograft. Description: Growth inhibition of malignant glioma cell U87MG xenograft in nude mice. The settings on record: for TGI: 20 days; for Tumor size D 0: day 0; for Tumor size D 20: day 20. In kind it is in vivo. The protocol: (§3) Groups of nude mice were implanted subcutaneously in the right hind back with 4×10^6 U87MG cells. Start dosing when mean tumor volume reached approximately 150 (100-200) mm^3. Grouping method: before dosing, animals were weighted, tumor sizes were measured, and randomized according to the tumor size (randomized block design), 8 mice per group. A solvent (0.5% CMC-Na+0.2% Tween-80) was dosed once daily by oral gavage for solvent control group, and pre-determined dose of test compound was dosed once daily by oral gavage for a dosing group, for 20 consecutive days.
(§4) Tumor diameters were measured twice a week with a vernier caliper. Tumor volume was calculated with formula: V=0.5a×b^2, a and b represent longer and shorter diameter of tumor. […] Meanwhile, the weight of nude mice in each group was weighed twice weekly for a preliminary evaluation of compound toxicity.

A short description of data set [2]: Body weight of nude mice in the U87MG xenograft study, preliminary evaluation of compound toxicity. The settings on record: for Body weight D 0: day 0; for Body weight D 20: day 20. In kind it is in vivo. The protocol: as §3, §4
Setting [3] is: 25 mg/kg once daily oral gavage.
Setting [4] is: 50 mg/kg once daily oral gavage.
Setting [5] is: 20 mg/kg once daily oral gavage.
Where [6] appears, read: 150 mg/kg once daily oral gavage.

Sequence of PI3Kα (P42336 whole entry): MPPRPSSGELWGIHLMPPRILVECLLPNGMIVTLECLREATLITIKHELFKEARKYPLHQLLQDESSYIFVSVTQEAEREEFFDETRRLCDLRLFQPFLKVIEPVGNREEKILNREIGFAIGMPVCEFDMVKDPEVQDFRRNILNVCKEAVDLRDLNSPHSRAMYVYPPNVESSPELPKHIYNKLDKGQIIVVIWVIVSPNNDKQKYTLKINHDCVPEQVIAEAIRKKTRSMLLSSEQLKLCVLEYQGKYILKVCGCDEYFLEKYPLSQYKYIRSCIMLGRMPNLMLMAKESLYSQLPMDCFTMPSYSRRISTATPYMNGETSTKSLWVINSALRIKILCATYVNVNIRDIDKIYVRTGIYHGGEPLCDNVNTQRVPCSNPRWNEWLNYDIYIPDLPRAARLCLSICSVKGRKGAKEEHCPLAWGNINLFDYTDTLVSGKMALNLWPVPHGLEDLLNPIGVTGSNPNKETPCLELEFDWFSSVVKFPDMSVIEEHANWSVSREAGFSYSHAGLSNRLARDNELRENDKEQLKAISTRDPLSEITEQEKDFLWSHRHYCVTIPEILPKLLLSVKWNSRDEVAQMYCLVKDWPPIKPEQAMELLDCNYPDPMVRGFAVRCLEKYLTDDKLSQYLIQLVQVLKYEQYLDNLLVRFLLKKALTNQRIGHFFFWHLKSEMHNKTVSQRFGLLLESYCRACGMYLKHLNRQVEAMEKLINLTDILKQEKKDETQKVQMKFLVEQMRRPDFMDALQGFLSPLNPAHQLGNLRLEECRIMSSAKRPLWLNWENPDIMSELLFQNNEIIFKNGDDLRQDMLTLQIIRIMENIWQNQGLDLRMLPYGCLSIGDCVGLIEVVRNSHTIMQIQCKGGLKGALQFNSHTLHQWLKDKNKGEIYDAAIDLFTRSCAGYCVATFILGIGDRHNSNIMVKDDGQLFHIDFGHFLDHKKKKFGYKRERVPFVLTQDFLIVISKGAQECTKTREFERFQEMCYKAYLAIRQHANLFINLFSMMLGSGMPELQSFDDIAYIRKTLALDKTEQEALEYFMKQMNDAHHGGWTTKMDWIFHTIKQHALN
Sequence of PI3Kα (P27986 whole entry partner): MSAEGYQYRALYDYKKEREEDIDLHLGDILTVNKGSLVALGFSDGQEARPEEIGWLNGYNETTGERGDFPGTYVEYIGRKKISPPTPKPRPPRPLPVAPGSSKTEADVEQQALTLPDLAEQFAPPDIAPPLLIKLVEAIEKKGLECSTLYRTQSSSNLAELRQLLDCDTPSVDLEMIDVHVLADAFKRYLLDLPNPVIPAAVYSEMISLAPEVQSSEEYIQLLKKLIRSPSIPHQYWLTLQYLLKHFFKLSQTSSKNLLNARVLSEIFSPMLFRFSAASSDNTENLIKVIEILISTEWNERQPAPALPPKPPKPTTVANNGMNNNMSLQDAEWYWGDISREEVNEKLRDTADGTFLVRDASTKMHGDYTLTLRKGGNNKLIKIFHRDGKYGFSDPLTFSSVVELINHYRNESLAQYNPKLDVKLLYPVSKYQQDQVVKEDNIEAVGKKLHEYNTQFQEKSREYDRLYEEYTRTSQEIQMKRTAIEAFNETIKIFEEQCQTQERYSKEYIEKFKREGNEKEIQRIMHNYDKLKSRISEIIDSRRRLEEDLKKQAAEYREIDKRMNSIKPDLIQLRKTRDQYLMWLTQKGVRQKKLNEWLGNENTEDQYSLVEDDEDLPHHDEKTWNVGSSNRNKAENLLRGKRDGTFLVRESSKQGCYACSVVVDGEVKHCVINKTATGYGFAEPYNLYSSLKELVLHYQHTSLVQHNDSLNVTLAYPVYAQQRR
Sequence of PI3Kδ (O00329 whole entry): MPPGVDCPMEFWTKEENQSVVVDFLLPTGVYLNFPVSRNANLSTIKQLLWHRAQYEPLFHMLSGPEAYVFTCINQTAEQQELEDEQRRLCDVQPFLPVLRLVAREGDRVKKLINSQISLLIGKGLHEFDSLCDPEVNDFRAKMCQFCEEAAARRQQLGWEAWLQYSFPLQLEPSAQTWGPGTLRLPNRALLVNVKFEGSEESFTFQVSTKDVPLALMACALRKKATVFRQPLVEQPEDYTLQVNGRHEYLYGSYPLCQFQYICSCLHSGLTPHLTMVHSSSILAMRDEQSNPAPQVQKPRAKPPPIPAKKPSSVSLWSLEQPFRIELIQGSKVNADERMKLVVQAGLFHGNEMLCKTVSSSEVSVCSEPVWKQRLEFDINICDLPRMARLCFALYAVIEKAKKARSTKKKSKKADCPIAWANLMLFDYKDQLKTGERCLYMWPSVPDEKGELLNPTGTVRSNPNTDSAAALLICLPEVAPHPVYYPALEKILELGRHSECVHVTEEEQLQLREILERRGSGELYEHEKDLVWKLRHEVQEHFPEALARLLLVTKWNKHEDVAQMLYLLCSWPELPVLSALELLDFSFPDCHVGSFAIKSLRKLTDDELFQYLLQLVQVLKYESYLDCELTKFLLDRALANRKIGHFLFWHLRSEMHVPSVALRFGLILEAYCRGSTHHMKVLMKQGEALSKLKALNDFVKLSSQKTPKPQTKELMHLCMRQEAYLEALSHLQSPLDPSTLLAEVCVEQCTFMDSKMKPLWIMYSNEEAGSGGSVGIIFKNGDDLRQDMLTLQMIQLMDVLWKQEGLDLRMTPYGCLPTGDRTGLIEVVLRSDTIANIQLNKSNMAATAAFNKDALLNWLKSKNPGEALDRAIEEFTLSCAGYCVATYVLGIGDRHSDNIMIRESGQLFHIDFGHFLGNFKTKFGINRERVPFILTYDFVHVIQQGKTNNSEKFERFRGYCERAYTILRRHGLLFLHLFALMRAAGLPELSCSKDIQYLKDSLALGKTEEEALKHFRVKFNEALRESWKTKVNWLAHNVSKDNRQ
Sequence of PI3Kδ (P27986 whole entry partner): as the sequence (P27986 whole entry partner) above

Regarding `CS(=O)(=O)N1CCN(Cc2csc3c(-c4cccc(O)c4)nc(N4CCOCC4)nc23)CC1` [Compound 13], the IC50 against PI3Kα turned out to be 265 nM; against PI3Kδ it was 327 nM.

In the case of `C[C@@H](O)C(=O)N1CCN(Cc2csc3c(-c4cnc(N)nc4)nc(N4CCOCC4)nc23)CC1` [Compound 19], the IC50 in the data set on A549 is 3990 nM; on PI3Kα, 51.4 nM; in the data set on U87-MG it was 8080 nM; against PI3Kδ, 31.9 nM; in the data set with PC3, 2610 nM.

On to `CS(=O)(=O)N1CCN(Cc2csc3c(-c4ccc(N)nc4)nc(N4CCOCC4)nc23)CC1` [Compound 12], for which the 50% inhibitory concentration (IC50) stood at 232 nM against PI3Kα and 190 nM at PI3Kδ.

Turning to `CC(C)(O)C(=O)N1CCN(Cc2csc3c(-c4cnc(N)nc4)nc(N4CCOCC4)nc23)CC1` [Compound 20], the IC50 was found to be 46.2 nM on PI3Kα and 52 nM on PI3Kδ.

Take `Cc1sc2c(-c3cnc(N)nc3)nc(N3CCOCC3)nc2c1CN1CCN(C(=O)[C@@H](C)O)CC1` [Compound 25]: the IC50 in the data set with A549 was 6680 nM; at PI3Kα, 56 nM; with U87-MG, 11300 nM; on PI3Kδ, 13 nM; in the data set with PC3 it was 3060 nM.

For `Nc1ncc(-c2nc(N3CCOCC3)nc3ccoc23)cn1` [Compound 31], the concentration for half-maximal inhibition (IC50) is 26 nM on PI3Kα and 290 nM against PI3Kδ.

For `O=C(CO)N1CCN(Cc2csc3c(-c4cccc5[nH]ncc45)nc(N4CCOCC4)nc23)CC1` [Compound 26], the IC50 worked out at 9330 nM with A549; 141 nM against PI3Kα; 19700 nM in the data set with U87-MG; 41 nM at PI3Kδ; 3280 nM in the data set on PC3.

For `CS(=O)(=O)N1CCN(Cc2csc3c(-c4cccc5[nH]ncc45)nc(N4CCOCC4)nc23)CC1` [Compound 6], the half-maximal inhibitory concentration (IC50) was determined as 4640 nM in the data set with A549; 57 nM on PI3Kα; 7410 nM in the data set with U87-MG; 62 nM at PI3Kδ; 6110 nM in the data set on PC3.

Turning to `Cc1nc(N)ncc1-c1nc(N2CCOCC2)nc2c(CN3CCN(S(C)(=O)=O)CC3)csc12` [Compound 11], the IC50 was 6440 nM in the data set on A549; 13.1 nM at PI3Kα; 12200 nM in the data set with U87-MG; 28.3 nM at PI3Kδ; 10100 nM in the data set with PC3.

Take `C[C@H](O)C(=O)N1CCN(Cc2csc3c(-c4cnc(N)nc4)nc(N4CCOCC4)nc23)CC1` [Compound 18]: the IC50 in the data set with A549 came to 3640 nM; against PI3Kα it was 12 nM; in the data set with U87-MG, 8870 nM; against PI3Kδ, 12.6 nM; in the data set with PC3, 2310 nM.

For `Cc1nc(N)ncc1-c1nc(N2CCOCC2)nc2c(CN3CCN(C(=O)[C@H](C)O)CC3)csc12` [Compound 22], the IC50 was 77 nM against PI3Kα and 11 nM at PI3Kδ.

On to `Cc1sc2c(-c3cccc4[nH]ncc34)nc(N3CCOCC3)nc2c1CN1CCN(S(C)(=O)=O)CC1` [Compound 30], for which the half-maximal inhibitory concentration (IC50) was determined as 262 nM on PI3Kα and 60.4 nM against PI3Kδ.

As to `Cc1sc2c(-c3cnc(N)nc3)nc(N3CCOCC3)nc2c1CN1CCN(CCO)CC1` [Compound 36], the 50% inhibitory concentration (IC50) came to 157 nM against PI3Kα and 56 nM against PI3Kδ.

With `CS(=O)(=O)N1CCN(Cc2cc3nc(-c4cccc5[nH]ncc45)nc(N4CCOCC4)c3s2)CC1` [GDC-0941, reference compound], in data set [1] (setting [3]), the TGI is recorded as 57.65%, the “Tumor size D 0” value amounted to 149.86 mm^3 and the “Tumor size D 20” value amounted to 456.64 mm^3. Moreover, in data set [1] (setting [4]), the TGI is on record as 66.07%, the “Tumor size D 0” value was 150.72 mm^3 and the “Tumor size D 20” value came out at 396.57 mm^3. In data set [2] (setting [3]), the “Body weight D 0” value stood at 22.24 g and the “Body weight D 20” value is 23.64 g. Besides, in data set [2] (setting [4]), the “Body weight D 0” value is 22.47 g and the “Body weight D 20” value is recorded as 23.57 g.

In the case of `C[C@@H](O)C(=O)N1CCN(Cc2csc3c(-c4cccc5[nH]ncc45)nc(N4CCOCC4)nc23)CC1` [Compound 23], the results for the concentration for half-maximal inhibition (IC50) at PI3Kα and against PI3Kδ were 202 nM and 16 nM, respectively.

On to `Cc1sc2c(-c3cnc(N)nc3)nc(N3CCOCC3)nc2c1CN1CCN(C(=O)CO)CC1` [Compound 29], for which the IC50 came to 2700 nM with A549; 18 nM on PI3Kα; 3740 nM with U87-MG; 7 nM at PI3Kδ; 1490 nM in the data set with PC3. For the same molecule, the TGI in data set [1] (setting [5]) was determined as 88.38%; in data set [1] (setting [4]) it was 102.88%; in data set [1] (setting [6]), 113.86%. For the same molecule, the “Tumor size D 0” value in data set [1] (setting [5]) is listed as 148.62 mm^3; in data set [1] (setting [4]), 151.36 mm^3; in data set [1] (setting [6]), 148.16 mm^3. Moreover, the “Tumor size D 20” value in data set [1] (setting [5]) is recorded as 232.84 mm^3; in data set [1] (setting [4]) it was 130.48 mm^3; in data set [1] (setting [6]), 47.70 mm^3. In addition, the “ability to inhibit tumor growth compared with GDC-0941 (in words)” value in data set [1] (U87MG xenograft in nude mice) is reported as “significantly better than GDC-0941”. Moreover, the “in vivo anti-tumor activity (in words)” value in data set [1] (U87MG xenograft in nude mice) is listed as “strong in vivo anti-tumor activity”. The “Body weight D 0” value in data set [2] (setting [5]) is 22.40 g; in data set [2] (setting [4]), 22.21 g; in data set [2] (setting [6]), 22.76 g. In addition, the figures for the “Body weight D 20” value in data set [2] (setting [5]), in data set [2] (setting [4]) and in data set [2] (setting [6]) were 22.69 g, 21.99 g and 20.62 g, respectively. For the same molecule, the “tolerability / toxic side effects (in words)” value in data set [2] (high dose (150 mg/kg)) is given as “the tested mice can still torelate even the high dose”.

As to `CS(=O)(=O)N1CCN(Cc2csc3c(-c4cncnc4)nc(N4CCOCC4)nc23)CC1` [Compound 15], the IC50 at PI3Kα stood at 104 nM; against PI3Kδ, 200 nM.

In the case of `CC(C)(O)C1CCN(Cc2csc3c(-c4cnc(N)nc4)nc(N4CCOCC4)nc23)CC1` [Compound 17], the IC50 was determined as 4820 nM with A549; 245 nM against PI3Kα; 7810 nM in the data set on U87-MG; 65.4 nM on PI3Kδ; 5390 nM in the data set with PC3.

As to `Nc1ncc(-c2nc(N3CCOCC3)nc3c(CN4CCN(C(=O)CO)CC4)csc23)cn1` [Compound 28], the IC50 came out at 2600 nM in the data set with A549; 24 nM on PI3Kα; 4460 nM in the data set with U87-MG; 38 nM at PI3Kδ; 1940 nM in the data set with PC3.

`C[C@H](O)C(=O)N1CCN(Cc2csc3c(-c4cccc5[nH]ncc45)nc(N4CCOCC4)nc23)CC1` [Compound 27]: the 50% inhibitory concentration (IC50) against PI3Kα worked out at 76 nM; at PI3Kδ it was 18 nM.

On to `Cc1sc2c(-c3cnc(N)nc3)nc(N3CCOCC3)nc2c1CN1CCN(C(=O)[C@H](C)O)CC1` [Compound 24], for which the IC50 came out at 2740 nM in the data set on A549; 18.9 nM at PI3Kα; 9360 nM in the data set with U87-MG; 8.3 nM against PI3Kδ; 2070 nM in the data set with PC3.

For `Cc1nc(N)ncc1-c1nc(N2CCOCC2)nc2c(CN3CCN(C(=O)[C@H](C)O)CC3)csc12` [Compound 21], the IC50 on PI3Kα is 35 nM; against PI3Kδ, 4.7 nM.

As to `CN(Cc1csc2c(-c3cnc(N)nc3)nc(N3CCOCC3)nc12)C(=O)CO` [Compound 32], the IC50 at PI3Kα is 32 nM.
